Experimental data reported in EP4617278A1, “NUCLEOTIDE ANALOG, AND COMPOSITION AND USE THEREOF” (priority 2022, dated 2024).

The molecules below were run on SARS-CoV-2 replicon. Settings: read-out: SARS-CoV-2 Replicon (Huh-7cell) EC50.
Assay type: cell-based
CC(C)C(=O)O[C@H]1[C@@H](OC(=O)C(C)C)[C@](C#N)(c2ccc3c(N)ncnn23)O[C@@H]1COP(=O)(OCCSC(=O)C(C)(C)C)OCCSC(=O)C(C)(C)C [Compound 30, (2R,3R,4R,5R)-2-(4-aminopyrrolo[2,1-f][1,2,4]triazin-7-yl)-5-((((bis(2-(pivaloylthio)ethoxy))phosphoryl)oxy)methyl)-2-cyanotetrahydrofuran-3,4-diyl bis(2-methylpropionate)] showed an EC50 of under 0.005 µM.
With CCC(CC)COC(=O)[C@H](Cc1ccccc1)N[P@](=O)(OCOC(=O)OC(C)C)OC[C@H]1O[C@@](C#N)(c2ccc3c(N)ncnn23)[C@H](OC(=O)C(C)C)[C@@H]1OC(=O)C(C)C [Compound 31a, (2R,3R,4R,5R)-2-(4-aminopyrrolo[2,1-f][1,2,4]triazin-7-yl)-2-cyano-5-((((R)-(((S)-1-(2-ethylbutoxy)-1-oxo-3-phenylpropan-2-yl)amino)(((isopropoxycarbonyl)oxy)methoxy)phosphoryl)oxy)methyl)tetrahydrofuran-3,4-diyl bis(2-methylpropionate)] the EC50 was 0.01 to 0.05 µM.
Molecule CCC(CC)COC(=O)[C@H](Cc1ccccc1)N[P@@](=O)(OCOC(=O)OC(C)C)OC[C@H]1O[C@@](C#N)(c2ccc3c(N)ncnn23)[C@H](OC(=O)C(C)C)[C@@H]1OC(=O)C(C)C [Compound 31b, (2R,3R,4R,5R)-2-(4-aminopyrrolo[2,1-f][1,2,4]triazin-7-yl)-2-cyano-5-((((S)-(((S)-1-(2-ethylbutoxy)-1-oxo-3-phenylpropan-2-yl)amino)(((isopropoxycarbonyl)oxy)methoxy)phosphoryl)oxy)methyl)tetrahydrofuran-3,4-diyl bis(2-methylpropionate)] has an EC50 of 0.01 to 0.05 µM.
CCC(CC)COC(=O)C1(N[P@](=O)(OCOC(=O)OC(C)C)OC[C@H]2O[C@@](C#N)(c3ccc4c(N)ncnn34)[C@H](OC(=O)C(C)C)[C@@H]2OC(=O)C(C)C)CCC1 [Compound 32a, (2R,3R,4R,5R)-2-(4-aminopyrrolo[2,1-f][1,2,4]triazin-7-yl)-2-cyano-5-((((R)-((1-((2-ethylbutoxy)carbonyl)cyclobutyl)amino)(((isopropoxycarbonyl)oxy)methoxy)phosphoryl)oxy)methyl)tetrahydrofuran-3,4-diyl bis(2-methylpropionate)] was tested, and the EC50 was 0.01 to 0.05 µM.
With CCC(CC)COC(=O)C1(N[P@@](=O)(OCOC(=O)OC(C)C)OC[C@H]2O[C@@](C#N)(c3ccc4c(N)ncnn34)[C@H](OC(=O)C(C)C)[C@@H]2OC(=O)C(C)C)CCC1 [Compound 32b, (2R,3R,4R,5R)-2-(4-aminopyrrolo[2,1-f][1,2,4]triazin-7-yl)-2-cyano-5-((((S)-((1-((2-ethylbutoxy)carbonyl)cyclobutyl)amino)(((isopropoxycarbonyl)oxy)methoxy)phosphoryl)oxy)methyl)tetrahydrofuran-3,4-diyl bis(2-methylpropionate)] the EC50 was 0.01 to 0.05 µM.
Molecule CCCCCOC(=O)C[C@H](N[P@@](=O)(OC[C@H]1O[C@@](C#N)(c2ccc3c(N)ncnn23)[C@H](OC(=O)C(C)C)[C@@H]1OC(=O)C(C)C)Oc1ccccc1)C(=O)OCCCCC [Compound 38a, (2R,3R,4R,5R)-2-(4-aminopyrrolo[2,1-f][1,2,4]triazin-7-yl)-2-cyano-5-((((R)-(((S)-1,4-dipentyloxy-1,4-dioxobutan-2-yl)amino)(phenoxy)phosphoryl)oxy)methyl)tetrahydrofuran-3,4-diyl bis(2-methylpropionate)] has an EC50 of 0.05 to 0.5 µM.
For CCCCCOC(=O)C[C@H](N[P@](=O)(OC[C@H]1O[C@@](C#N)(c2ccc3c(N)ncnn23)[C@H](OC(=O)C(C)C)[C@@H]1OC(=O)C(C)C)Oc1ccccc1)C(=O)OCCCCC [Compound 38b, (2R,3R,4R,5R)-2-(4-aminopyrrolo[2,1-f][1,2,4]triazin-7-yl)-2-cyano-5-((((S)-(((S)-1,4-dipentyloxy-1,4-dioxobutan-2-yl)amino)(phenoxy)phosphoryl)oxy)methyl)tetrahydrofuran-3,4-diyl bis(2-methylpropionate)], the EC50 was 0.01 to 0.05 µM.
CCCCCOC(=O)C[C@H](N[P@@](=O)(OC[C@H]1O[C@@](C#N)(c2ccc3c(N)ncnn23)[C@H](OC(=O)C(C)C)[C@@H]1OC(=O)C(C)C)Oc1ccc(C(C)(C)C)cc1)C(=O)OCCCCC [Compound 39a, (2R,3R,4R,5R)-2-(4-aminopyrrolo[2,1-f][1,2,4]triazin-7-yl)-2-cyano-5-((((R)-(((S)-1,4-dipentyloxy-1,4-dioxobutan-2-yl)amino)(4-tert-butylphenoxy)phosphoryl)oxy)methyl)tetrahydrofuran-3,4-diyl bis(2-methylpropionate)] gave an EC50 of 0.05 to 0.5 µM.
With CCCCCOC(=O)C[C@H](N[P@](=O)(OC[C@H]1O[C@@](C#N)(c2ccc3c(N)ncnn23)[C@H](OC(=O)C(C)C)[C@@H]1OC(=O)C(C)C)Oc1ccc(C(C)(C)C)cc1)C(=O)OCCCCC [Compound 39b, (2R,3R,4R,5R)-2-(4-aminopyrrolo[2,1-f][1,2,4]triazin-7-yl)-2-cyano-5-((((S)-(((S)-1,4-dipentyloxy-1,4-dioxobutan-2-yl)amino)(4-tert-butylphenoxy)phosphoryl)oxy)methyl)tetrahydrofuran-3,4-diyl bis(2-methylpropionate)] the EC50 was 0.01 to 0.05 µM.
Molecule CCC(CC)COC(=O)C1(N[P@@](=O)(OC[C@H]2O[C@@](C#N)(c3ccc4c(N)ncnn34)[C@H](OC(=O)C(C)C)[C@@H]2OC(=O)C(C)C)Oc2ccccc2)CCC1 [Compound 40a, (2R,3R,4R,5R)-2-(4-aminopyrrolo[2,1-f][1,2,4]triazin-7-yl)-2-cyano-5-((((R)-((1-((2-ethylbutoxy)carbonyl)cyclobutyl)amino)(phenoxy)phosphoryl)oxy)methyl)tetrahydrofura n-3,4-diyl bis(2-methylpropionate)] has an EC50 of 0.01 to 0.05 µM.
Molecule CCC(CC)COC(=O)C1(N[P@](=O)(OC[C@H]2O[C@@](C#N)(c3ccc4c(N)ncnn34)[C@H](OC(=O)C(C)C)[C@@H]2OC(=O)C(C)C)Oc2ccccc2)CCC1 [Compound 40b, (2R,3R,4R,5R)-2-(4-aminopyrrolo[2,1-f][1,2,4]triazin-7-yl)-2-cyano-5-((((S)-((1-((2-ethylbutoxy)carbonyl)cyclobutyl)amino)(phenoxy)phosphoryl)oxy)methyl)tetrahydrofura n-3,4-diyl bis(2-methylpropionate)] has an EC50 of 0.05 to 0.5 µM.
Work on CCC(CC)COC(=O)[C@H](Cc1ccccc1)N[P@@](=O)(OC[C@H]1O[C@@](C#N)(c2ccc3c(N)ncnn23)[C@H](OC(=O)C(C)C)[C@@H]1OC(=O)C(C)C)Oc1ccccc1 [Compound 41a, (2R,3R,4R,5R)-2-(4-aminopyrrolo[2,1-f][1,2,4]triazin-7-yl)-2-cyano-5-((((R)-(((S)-1-(2-ethylbutoxy)-1-oxo-3-phenylpropan-2-yl)amino)(phenoxy)phosphoryl)oxy)methyl)tetrahydrofuran-3,4-diyl bis(2-methylpropionate)] yielded an EC50 of 0.05 to 0.5 µM.
CCC(CC)COC(=O)[C@H](Cc1ccccc1)N[P@](=O)(OC[C@H]1O[C@@](C#N)(c2ccc3c(N)ncnn23)[C@H](OC(=O)C(C)C)[C@@H]1OC(=O)C(C)C)Oc1ccccc1 [Compound 41b, (2R,3R,4R,5R)-2-(4-aminopyrrolo[2,1-f][1,2,4]triazin-7-yl)-2-cyano-5-((((S)-(((S)-1-(2-ethylbutoxy)-1-oxo-3-phenylpropan-2-yl)amino)(phenoxy)phosphoryl)oxy)methyl)tetrahydrofuran-3,4-diyl bis(2-methylpropionate)] gave an EC50 of 0.005 to 0.01 µM.
CC(=O)OCO[P@@](=O)(OC[C@H]1O[C@@](C#N)(c2ccc3c(N)ncnn23)[C@H](OC(=O)C(C)C)[C@@H]1OC(=O)C(C)C)Oc1ccc(C(C)(C)C)cc1 [Compound 43a, (2R,3R,4R,5R)-2-(4-aminopyrrolo[2,1-f][1,2,4]triazin-7-yl)-5-(((((S)-acetoxylmethoxy)(4-tert-butylphenoxy)phosphoryl)oxy)methyl)-2-cyanotetrahydrofuran-3,4-diyl bis(2-methylpropionate)] showed an EC50 of 0.005 to 0.01 µM.
For CC(=O)OCO[P@](=O)(OC[C@H]1O[C@@](C#N)(c2ccc3c(N)ncnn23)[C@H](OC(=O)C(C)C)[C@@H]1OC(=O)C(C)C)Oc1ccc(C(C)(C)C)cc1 [Compound 43b, (2R,3R,4R,5R)-2-(4-aminopyrrolo[2,1-f][1,2,4]triazin-7-yl)-5-(((((R)-acetoxylmethoxy)(4-tert-butylphenoxy)phosphoryl)oxy)methyl)-2-cyanotetrahydrofuran-3,4-diyl bis(2-methylpropionate)], the EC50 was 0.005 to 0.01 µM.
CC(C)C(=O)O[C@H]1[C@@H](OC(=O)C(C)C)[C@](C#N)(c2ccc3c(N)ncnn23)O[C@@H]1CO[P@](=O)(OCOC(=O)C(C)(C)C)Oc1ccc(C(C)(C)C)cc1 [Compound 44a, (2R,3R,4R,5R)-2-(4-aminopyrrolo[2,1-f][1,2,4]triazin-7-yl)-5-(((((S)-4-tert-butylphenoxy)(((tert-butylcarbonyl)oxy)methoxy)phosphoryl)oxy)methyl)-2-cyanotetrahydrofuran-3,4-diyl bis(2-methylpropionate)] showed an EC50 of 0.005 to 0.01 µM.
CC(C)C(=O)O[C@H]1[C@@H](OC(=O)C(C)C)[C@](C#N)(c2ccc3c(N)ncnn23)O[C@@H]1CO[P@@](=O)(OCOC(=O)C(C)(C)C)Oc1ccc(C(C)(C)C)cc1 [Compound 44b, (2R,3R,4R,5R)-2-(4-aminopyrrolo[2,1-f][1,2,4]triazin-7-yl)-5-(((((R)-4-tert-butylphenoxy)(((tert-butylcarbonyl)oxy)methoxy)phosphoryl)oxy)methyl)-2-cyanotetrahydrofuran-3,4-diyl bis(2-methylpropionate)] gave an EC50 of 0.01 to 0.05 µM.
Molecule CC(C)C(=O)OCOP(=O)(OCOC(=O)C(C)C)OC[C@H]1O[C@@](C#N)(c2ccc3c(N)ncnn23)[C@H](OC(=O)C(C)C)[C@@H]1OC(=O)C(C)C [Compound 45] has an EC50 of at most 0.005 µM.
Molecule CCCCCCCCCCCCOC(=O)[C@H](C)N[P@@](=O)(OC[C@H]1O[C@@](C#N)(c2ccc3c(N)ncnn23)[C@H](OC(=O)C(C)C)[C@@H]1OC(=O)C(C)C)Oc1ccccc1 [Compound 46a] has an EC50 of 0.05 to 0.5 µM.
For CCCCCCCCCCCCOC(=O)[C@H](C)N[P@](=O)(OC[C@H]1O[C@@](C#N)(c2ccc3c(N)ncnn23)[C@H](OC(=O)C(C)C)[C@@H]1OC(=O)C(C)C)Oc1ccccc1 [Compound 46b, (2R,3R,4R,5R)-2-(4-aminopyrrolo[2,1-f][1,2,4]triazin-7-yl)-2-cyano-5-((((S)-(((S)-1-(dodecyloxy)-1-oxopropan-2-yl)amino)(phenoxy)phosphoryl)oxy)methyl)tetrahydrofuran-3,4-diyl bis(2-methylpropionate)], the EC50 was 0.05 to 0.5 µM.
